One series relates to VCaP cells. Put plainly: Clonogenic assay, VCaP. To be noted: J54 alone. Type of series: cell-based. On the procedure:
(§1) All experiments were conducted in triplicates. […] The cells were grown for 2-3 weeks and stained with crystal violet. All experiments were conducted in triplicates. […] The cell lines used were human “normal” RWPE-1, LNCaP, (LNCaP-derivative) C4-2B, 22RV1, DU14, PC3, and mouse TRAMP-C2. FIGS. 11C and 11D show cell proliferation of LNCaP and TRAMP-C2 were determined during a 3 days incubation with different concentration of J54 (MTS assay). All experiments were conducted in triplicates. […] Representative analysis of two independent experiments are shown.
(§2) J54 in combination with anti-androgen (Bicalutamide) induces apoptosis in AS PCa cells. […] The inventors thus tested the same panel of cells in androgen containing medium (FBS) by proliferation assays. […] Note that VCaP cells were 60% inhibited by J54 alone, consistent with their elevated replication stress-driven DDR and checkpoint activation (FIG. 12E), which when suppressed with J54 could lead to apoptosis. Clonogenic assays are unable to distinguish the effects of a DNA damaging agent, which can result in either an impaired or delayed resumption of growth (cell division) or loss of viability due to increased killing of the initial population. The inventors thus measured in LNCaP and TRAMP-C2 cells the early change in cell number (MTT assay) over 72 h with J54 alone.

Series [1] in a line: Pharmacokinetics, plasma distribution after IP injection. In kind it is in vivo, mice. The text has this: FIGS. 18A-18C show pharmacokinetics plasma distribution of J54.
(§3) The inventors sought to establish if the addition of J54 could suppress the resurgence of tumor growth of LNCaP xenografts and their latter conversion to CRPC. Following formation of sizeable tumors (˜200 mm^3), castration or anti-androgens arrest the progression of LNCaP xenografts for some time (2-3 weeks), while subsequently the tumors start growing again at an accelerated rate which is refractory to ADT (AI). Therefore, the inventors injected LNCaP cells in matrigel in both flanks of NOD-SCID mice, and then randomly assigned them to four treatment groups (n=5 per group×2 independent experiments), as shown in FIGS. 13A-13C. […] The inventors should also point out that the inventors treated the mice with J54 only bi-weekly due to the favorable pharmacokinetics, where maximal plasma concentration of 100 ng/ml ([…]) were reached 2 h after IP injection, and was still present at −6 ng/ml (6 μM) after 24 h (FIG. 18A-18C).

Another series deals with LNCaP and TRAMP-C2 cells. The experiment in a line: Early change in cell number (MTT assay) over 72 h. Type of series: cell-based. The note with it: J54 alone. As to the method:
as §1, §2
A general note: Formazan colour is commonly taken as a measure of viable cells.

Series [2] is described as follows: General assessment of mice following injections. Type of series: in vivo. An excerpt:
We then did a general assessment of mice following injections of J54. […] To get a better assessment of the possible behavioral effects of J54, the inventors used C. elegans that has a simple but complete nervous system and has been well characterized for its responses to anti-psychotic drugs, including actions at serotonin or dopamine receptors.

Series [3] has as its system RWPE1 (normal prostate) cell line. The experiment in a line: Cell proliferation assay, normal prostate cells. Type of series: cell-based, human. On the procedure: as §1, §2
A further series concerns LNCaP xenografts. The experiment in a line: LNCaP xenograft model. Type of series: in vivo, NOD/SCID mice. The note with it: IP bi-weekly. On the procedure:
Treatment started 19 days after implantation when the tumors measure ˜200 mm^3. Two independent experiment with 5 mice per group were carried out. J54 and Bicalutamide was dissolved in DMSO and diluted in corn oil 1:10 and administered IP bi-weekly. Sectioning and processing of the tissues were carried out in the FWCC Histology Service, using automated processes and equipment to provide uniform and standardized results. Indirect labeling was with ABC Elite: RTU Vectastain Elite Reagent, Vector #PK-7100; DAB: ImmPact DAB, Vector #SK-4105. Light counterstaining was done with hematoxylin. […] Note the weak pNek1 stain in the tumor from mice treated with J54, in contrast to the increase seen with BIC.
LNCaP Xenograft Model and Immunohistochemistry (IHC): All animals used in this study were approved by LSUHSC IACUC and following ARRIVE guidelines. Male NOD/SCID mice (5 per group) were purchased from Jackson labs. LNCaP cells were injected as described earlier. Mice were treated IP bi-weekly with J54 (5 mg/kg body weight—dose estimation derived from pharmacokinetics study) and/or Bicalutamide (100 mg/kg).
as §3

Series [4] concerns LNCaP, C4-2B, 22RV1, DU14, PC3, TRAMP-C2. Put plainly: Cell proliferation assays of PCa cell line panel. The note with it: androgen containing medium (FBS). In kind it is cell-based. On the procedure:
as §1, §2

Structures are written as SMILES. Values joined by “and” are separate entries in the source; they are usually repeats but may differ in a detail not shown here. Equal entries are not always repeated. “Also recorded” adds a separate entry of the source.

On to `c1ccc2c(c1)Sc1ccccc1N2CCN1CCOCC1` [J54, 4-(2-(10H-phenothiazin-10-yl)ethyl) morpholine], for which the “inhibition of colony formation” value with VCaP cells was found to be 60%. Also, in series [1] (IP injection), the maximal plasma concentration was 100 ng/ml and 35 μM. In addition, the “time of maximal plasma concentration” value in series [1] (after IP injection) was determined as 2 h. The concentration at 24 h in series [1] (mouse, plasma, IP injection) is 6 µM. Moreover, the “change in cell number” value with LNCaP and TRAMP-C2 cells is “actual loss in cell counts in relation to the dose”. Also, the toxicity entry in series [2] (incl. gross inspection of organs at necropsy) was “no toxicity”. Besides, in series [2] (mouse, in vivo), the behavioral changes result was “no behavioral changes” and the body weight entry is recorded as “no decrease in body weight”. Further, the “sensitivity of normal cells” value in series [3] was “insensitive; also recorded: non-toxic to normal cells”. Moreover, the tumor weight entry in the series on LNCaP xenografts (end of treatment) is “significant suppression”. The tumor growth entry in the series with LNCaP xenografts (J54 5 mg/kg, Bicalutamide 100 mg/kg) is “significant suppression”. Also, in series [4], the “concentration of maximal efficacy” value is “around 18 μM” and the inhibition of proliferation result is listed as “weak dose-dependent inhibition”.

The record behind these values is US11826369B2, “Targeting the TLK1/NEK1 axis in prostate cancer” (Board of Supervisors of Louisiana State University and …, priority 2019, dated 2023).
